Source: US10761087B2, “Choroidal neovascularization suppressor or drusen formation suppressor, and method for assessing or screening for same” (Link Genomics, Inc., priority 2015, dated 2020)

How the values were obtained:
Assay type in all cases: in vivo
[1] = test system: Collagen Type 1; assay: Mouse laser irradiation model: EMT assessment, Collagen Type 1 staining; details: 25 mg/kg orally once a day for three weeks
Protocol: It is known that laser irradiation of a mouse ocular fundus induces choroidal angiogenesis and EMT (Reference document: Ishikawa, et al, Exp Eye Res. 2016 January; 142:19.25). So, zaltoprofen was assessed for the suppressive effect of CNV and EMT by using a mouse laser irradiation model. A zaltoprofen suspension was prepared by stirring 0.15 g of zaltoprofen (available from TOKYO CHEMICAL […] CO., LTD.) and 0.75 g of gum arabic (available from Wako Pure Chemical Industries, Ltd.) in 60 mL of water. A medium (Vehicle) was prepared by dissolving and stirring 0.75 g of gum arabic in 60 mL of water. Then, an ocular fundus of a C57BL/6J mouse (8-week old, N=13) was laser-irradiated at four points for each eye under a slit lump using a multi-color laser light coagulator. From directly after irradiation, a vehicle or a zaltoprofen solution (25 mg/kg) was orally administered once a day for three weeks, and the following assessments were conducted. For (1) and (3), the same individual was used. After three weeks from laser irradiation, mice were euthanatized by cervical dislocation, and eyeballs were extracted, and dipped and fixed in 4% paraformaldehyde phosphate buffer (Wako Pure Chemical Industries, Ltd.). […] The specimen was subjected to photography of a stained image by the anti-Collagen Type 1 antibody under a microscope, and then quantitatively assessed.

[2] = test system: C57BL/6J mouse; assay: Mouse laser irradiation model: CNV assessment by fluorescent fundus photograph; details: 25 mg/kg orally once a day, versus Vehicle administration group
Protocol: It is known that laser irradiation of a mouse ocular fundus induces choroidal angiogenesis and EMT (Reference document: Ishikawa, et al, Exp Eye Res. 2016 January; 142:19.25). So, zaltoprofen was assessed for the suppressive effect of CNV and EMT by using a mouse laser irradiation model. A zaltoprofen suspension was prepared by stirring 0.15 g of zaltoprofen (available from TOKYO CHEMICAL […] CO., LTD.) and 0.75 g of gum arabic (available from Wako Pure Chemical Industries, Ltd.) in 60 mL of water. A medium (Vehicle) was prepared by dissolving and stirring 0.75 g of gum arabic in 60 mL of water. Then, an ocular fundus of a C57BL/6J mouse (8-week old, N=13) was laser-irradiated at four points for each eye under a slit lump using a multi-color laser light coagulator. From directly after irradiation, a vehicle or a zaltoprofen solution (25 mg/kg) was orally administered once a day for three weeks, and the following assessments were conducted. For (1) and (3), the same individual was used. After two weeks from laser irradiation, Fluorescite Injection 500 mg (Alcon Japan Ltd.) was administered (1 mL/kg) from the caudal vein, after about 1 minute from the administration, and a fluorescent fundus photograph was taken. Four points for each eye from the taken fluorescent fundus photograph were scored on the basis of the following assessment criteria. [Assessment Criteria] [table]

[3] = test system: Vimentin; assay: Mouse laser irradiation model: EMT assessment, Vimentin staining; details: 25 mg/kg orally once a day for three weeks
Protocol: It is known that laser irradiation of a mouse ocular fundus induces choroidal angiogenesis and EMT (Reference document: Ishikawa, et al, Exp Eye Res. 2016 January; 142:19.25). So, zaltoprofen was assessed for the suppressive effect of CNV and EMT by using a mouse laser irradiation model. A zaltoprofen suspension was prepared by stirring 0.15 g of zaltoprofen (available from TOKYO CHEMICAL […] CO., LTD.) and 0.75 g of gum arabic (available from Wako Pure Chemical Industries, Ltd.) in 60 mL of water. A medium (Vehicle) was prepared by dissolving and stirring 0.75 g of gum arabic in 60 mL of water. Then, an ocular fundus of a C57BL/6J mouse (8-week old, N=13) was laser-irradiated at four points for each eye under a slit lump using a multi-color laser light coagulator. From directly after irradiation, a vehicle or a zaltoprofen solution (25 mg/kg) was orally administered once a day for three weeks, and the following assessments were conducted. For (1) and (3), the same individual was used. After three weeks from laser irradiation, mice were euthanatized by cervical dislocation, and eyeballs were extracted, and dipped and fixed in 4% paraformaldehyde phosphate buffer (available from Wako Pure Chemical Industries, Ltd.). […]

CC(C(=O)O)c1ccc2c(c1)CC(=O)c1ccccc1S2 (stereo not drawn) [Zaltoprofen, zaltoprofen]
EMT suppressive effect (Collagen Type 1 assessment) [1]: significant suppressive effect for EMT | Stained volume of Collagen Type 1 ([1]; versus Vehicle administration group, p<0.05): significantly decreases | CNV by laser irradiation (fluorescent fundus photographs) ([2]; FIG. 22): significantly suppressed | CNV score by laser irradiation ([2]; two weeks after laser irradiation): significantly lower | EMT in the laser irradiation model [3]: suppresses EMT | Vimentin positive area ([3]; versus Vehicle administration group): reduced
